Common to all, as to format: functional
Assay [1] deals with Mycolicibacterium smegmatis. As to the kind of experiment: Antimycobacterial activity against Mycobacterium smegmatis NCIM 5138 assessed as growth inhibition at 0.5 mg/ml after 24 hr by agar well diffusion method. Conditions: NCIM 5138, 24 h, read-out: DIZ.
Assay [2] relates to Mycolicibacterium phlei. As to the kind of experiment: Antimycobacterial activity against Mycobacterium phlei NCIM 2240 assessed as growth inhibition at 0.1 mg/ml after 24 hr by agar well diffusion method. Conditions: NCIM 2240, 24 h, read-out: DIZ.
Assay [3] has as its system Mycobacterium tuberculosis. As to the kind of experiment: Antimycobacterial activity against Mycobacterium tuberculosis MTCC 300 assessed as growth inhibition at 1 mg/ml after 24 hr by agar well diffusion method. As to conditions: MTCC 300, 24 h, read-out: DIZ.
Assay [4] concerns Mycolicibacterium smegmatis. In words: Antimycobacterial activity against Mycobacterium smegmatis NCIM 5138 assessed as growth inhibition at 1 mg/ml after 24 hr by agar well diffusion method. As to conditions: NCIM 5138, 24 h, read-out: DIZ.
Assay [5] relates to Mycolicibacterium smegmatis. In words: Antimycobacterial activity against Mycobacterium smegmatis NCIM 5138 assessed as growth inhibition at 0.1 mg/ml after 24 hr by agar well diffusion method. Conditions: NCIM 5138, 24 h, read-out: DIZ.
For assay [6], the system named is Mycolicibacterium phlei. As to the kind of experiment: Antimycobacterial activity against Mycobacterium phlei NCIM 2240 assessed as growth inhibition at 0.5 mg/ml after 24 hr by agar well diffusion method. Conditions: NCIM 2240, 24 h, read-out: DIZ.
Assay [7] relates to Mycolicibacterium smegmatis. As to the kind of experiment: Antimycobacterial activity against Mycobacterium smegmatis NCIM 5138 assessed as growth inhibition after 24 hr by agar well diffusion method. Conditions: NCIM 5138, 24 h.
Assay [8] concerns Mycobacterium tuberculosis. In words: Antimycobacterial activity against Mycobacterium tuberculosis MTCC 300 assessed as growth inhibition after 24 hr by agar well diffusion method. Conditions: MTCC 300, 24 h.
Assay [9] concerns Mycolicibacterium phlei. In words: Antimycobacterial activity against Mycobacterium phlei NCIM 2240 assessed as growth inhibition at 1 mg/ml after 24 hr by agar well diffusion method. As to conditions: NCIM 2240, 24 h, read-out: DIZ.
Assay [10] relates to Mycolicibacterium phlei. As to the kind of experiment: Antimycobacterial activity against Mycobacterium phlei NCIM 2240 assessed as growth inhibition after 24 hr by agar well diffusion method. As to conditions: NCIM 2240, 24 h.
Assay [11] relates to Mycobacterium tuberculosis. In words: Antimycobacterial activity against Mycobacterium tuberculosis MTCC 300 assessed as growth inhibition at 0.1 mg/ml after 24 hr by agar well diffusion method. As to conditions: MTCC 300, 24 h, read-out: DIZ.
Assay [12] relates to Mycobacterium tuberculosis. As to the kind of experiment: Antimycobacterial activity against Mycobacterium tuberculosis MTCC 300 assessed as growth inhibition at 0.5 mg/ml after 24 hr by agar well diffusion method. Conditions: MTCC 300, 24 h, read-out: DIZ.

Converted amounts (≈) assume the structure as drawn.

Take `Cc1nn(-c2ccccc2)c2c1C(c1cn(-c3ccccc3)nc1-c1ccc(Cl)cc1)C1=C(NC(C)(c3ccc(O)c(Cl)c3O)NC1=O)O2` (stereo not given): the values for the zone of inhibition at 500 µg/mL in assay [1] and in [6] were 5.2 mm and 4 mm, respectively. In addition, the zone of inhibition at 100 µg/mL came out at 2.5 mm in assay [2] and 3.8 mm in assay [5]. In addition, the zone of inhibition at 1000 µg/mL in assay [3] amounted to 1.5 mm; in [4] it was 6.8 mm; in [9], 6.5 mm. In addition, the MIC amounted to 70 µg/mL (≈ 101 µM) in assay [7], 1000 µg/mL (≈ 1450 µM) in [8] and 90 µg/mL (≈ 130 µM) in [10].

Consider `Cc1nn(-c2ccccc2)c2c1C(c1cn(-c3ccccc3)nc1-c1ccc(Cl)cc1)C1=C(NC(C)(c3cc(Cl)cc(I)c3O)NC1=O)O2` (stereo not given), for which the zone of inhibition at 500 µg/mL in assay [1] was 5 mm; in [6], 1.5 mm. For the same molecule, the zone of inhibition at 1000 µg/mL was 5.4 mm in [4] and 2.8 mm in assay [9]. Also, in assay [5], the zone of inhibition at 100 µg/mL came to 4.2 mm. For the same molecule, the values for the MIC in assay [7] and in assay [10] were 70 µg/mL (≈ 87.3 µM) and 50 µg/mL (≈ 62.4 µM), respectively.

In the case of `Cc1nn(-c2ccccc2)c2c1C(c1cn(-c3ccccc3)nc1-c1ccc(F)cc1)C1=C(NC(C)(c3cc(Cl)ccc3O)NC1=O)O2` (stereo not given), in [1], the zone of inhibition at 500 µg/mL is 2.2 mm. Moreover, in assay [4], the zone of inhibition at 1000 µg/mL worked out at 3.2 mm. Also, the zone of inhibition at 100 µg/mL in assay [5] is 1.9 mm. In addition, the MIC in assay [7] was found to be 100 µg/mL (≈ 152 µM).

Turning to `Cc1nn(-c2ccccc2)c2c1C(c1cn(-c3ccccc3)nc1-c1ccc(F)cc1)C1=C(NC(C)(c3ccc(O)cc3O)NC1=O)O2` (stereo not given), the zone of inhibition at 500 µg/mL in [1] amounted to 5.5 mm; in assay [6], 1.5 mm. The values for the zone of inhibition at 1000 µg/mL in assay [4] and in assay [9] were 6.5 mm and 2.2 mm, respectively. Also, the zone of inhibition at 100 µg/mL in assay [5] is 4.1 mm. The MIC worked out at 40 µg/mL (≈ 62.4 µM) in assay [7] and 50 µg/mL (≈ 78 µM) in assay [10].

On to `Cc1nn(-c2ccccc2)c2c1C(c1cn(-c3ccccc3)nc1-c1ccc(F)cc1)C1=C(NC(C)(c3ccc(O)c(Cl)c3O)NC1=O)O2` (stereo not given), for which the zone of inhibition at 500 µg/mL was 7.6 mm in [1] and 1.5 mm in assay [6]. Also, the zone of inhibition at 100 µg/mL stood at 3.4 mm in assay [2] and 4.5 mm in [5]. In addition, the zone of inhibition at 1000 µg/mL in assay [3] came out at 2 mm; in [4], 11.5 mm; in assay [9], 2.5 mm. The MIC in assay [7] is 70 µg/mL (≈ 104 µM); in assay [8] it was 1000 µg/mL (≈ 1480 µM); in [10], 50 µg/mL (≈ 74.1 µM).

On to `Cc1nn(-c2ccccc2)c2c1C(c1cn(-c3ccccc3)nc1-c1ccc(F)cc1)C1=C(NC(C)(c3cc(Cl)cc(I)c3O)NC1=O)O2` (stereo not given), for which the zone of inhibition at 500 µg/mL in assay [1] was 9 mm; in assay [6], 7.1 mm. Moreover, the zone of inhibition at 100 µg/mL stood at 5.8 mm in assay [2] and 5.6 mm in assay [5]. In addition, the results for the zone of inhibition at 1000 µg/mL in assay [4] and in assay [9] were 12 mm and 8.6 mm, respectively. The MIC in [7] and in assay [10] was 60 µg/mL (≈ 76.4 µM) in each case.

On to `COc1ccc(-c2nn(-c3ccccc3)cc2C2C3=C(NC(C)(c4cc(Cl)ccc4O)NC3=O)Oc3c2c(C)nn3-c2ccccc2)cc1` (stereo not given), for which, in assay [1], the zone of inhibition at 500 µg/mL was 4.2 mm. Besides, the zone of inhibition at 1000 µg/mL in assay [4] came out at 5.2 mm; in [9], 2 mm. The zone of inhibition at 100 µg/mL in assay [5] stood at 2.8 mm. The MIC in [7] came out at 90 µg/mL (≈ 134 µM); in assay [10] it was 1000 µg/mL (≈ 1490 µM).

Take `COc1ccc(-c2nn(-c3ccccc3)cc2C2C3=C(NC(C)(c4cc(Cl)cc(I)c4O)NC3=O)Oc3c2c(C)nn3-c2ccccc2)cc1` (stereo not given): the zone of inhibition at 500 µg/mL was 10.8 mm in assay [1], 6.2 mm in assay [6] and 2.5 mm in [12]. Moreover, the values for the zone of inhibition at 100 µg/mL in [2], in [5] and in [11] were 4 mm, 8 mm and 2 mm, respectively. In addition, the zone of inhibition at 1000 µg/mL in assay [3] came out at 3.6 mm; in assay [4], 12 mm; in assay [9], 8.8 mm. The MIC in [7] worked out at 50 µg/mL (≈ 62.7 µM); in assay [8], 100 µg/mL (≈ 125 µM); in [10] it was 70 µg/mL (≈ 87.8 µM).

Consider `Cc1nn(-c2ccccc2)c2c1C(c1cn(-c3ccccc3)nc1-c1ccc(Cl)cc1)C1=C(NC(C)(c3cc(Cl)ccc3O)NC1=O)O2` (stereo not given), for which the zone of inhibition at 500 µg/mL in assay [1] stood at 2.3 mm; in [6] it was 2.4 mm. The zone of inhibition at 100 µg/mL in assay [2] was determined as 2 mm; in assay [5], 1.5 mm. The zone of inhibition at 1000 µg/mL worked out at 1.9 mm in assay [3], 3.6 mm in assay [4] and 3.5 mm in assay [9]. Further, the MIC was determined as 100 µg/mL (≈ 148 µM) in assay [7], 1000 µg/mL (≈ 1480 µM) in assay [8] and 100 µg/mL (≈ 148 µM) in assay [10].

With `Cc1nn(-c2ccccc2)c2c1C(c1cn(-c3ccccc3)nc1-c1ccc(Cl)cc1)C1=C(NC(C)(c3ccc(O)cc3O)NC1=O)O2` (stereo not given), the zone of inhibition at 500 µg/mL in assay [1] was 1.9 mm; in assay [6] it was 3.8 mm. For the same molecule, the zone of inhibition at 100 µg/mL in assay [2] came out at 2.5 mm; in assay [5] it was 1.6 mm. Also, the zone of inhibition at 1000 µg/mL in [4] was 3.2 mm; in assay [9], 4.5 mm. The results for the MIC in assay [7] and in assay [10] were 100 µg/mL (≈ 152 µM) and 70 µg/mL (≈ 107 µM), respectively.

In the case of `CO[C@H]1/C=C/O[C@@]2(C)Oc3c(C)c(O)c4c(O)c(c(/C=N/N5CCN(C)CC5)c(O)c4c3C2=O)NC(=O)/C(C)=C\C=C\[C@H](C)[C@H](O)[C@@H](C)[C@@H](O)[C@@H](C)[C@H](OC(C)=O)[C@@H]1C` [RIFAMPIN], the MIC worked out at 480 µg/mL (≈ 583 µM) in [7], 280 µg/mL (≈ 340 µM) in assay [8] and 40 µg/mL (≈ 48.6 µM) in assay [10].

For the origin of these results see ChEMBL document CHEMBL3045649, “Green approach towards synthesis of substituted pyrazole-1,4-dihydro,9-oxa,1,2,6,8-tetrazacyclopentano[b]naphthalene-5-one derivatives as antimycobacterial agents” (2013).
